Experimental data reported in patent publication US20240293344A1, “Unsaturated Hydroxamic Acid Derivatives and Their Use for the Treatment and Prevention of an Ammonia-Associated Disease or Disorder” (Versantis AG, priority 2021, published 2024).
pIC50: −log10 of the molar value. Read-outs that look alike come from different tables or passages of the source.

Key:
[1] = tested on: N-Nitrosodiethylamine induced liver disease in rats; test: In vivo efficacy in N-nitrosodiethylamine (DEN) induced liver disease in rats, blood ammonia; design: species or system rat; conditions: gavage twice a day from day 3, n=10
Protocol: Efficacy of 2-octynoHA was assessed in male Sprague Dawley rats (Beijing Vital River Laboratory Animal Technology Co., Ltd, China) in a model of acute liver disease. The liver damage was induced by reoccurring intraperitoneal injections of N-nitrosodiethylamine (DEN) 60 mg/kg on days 1, 3, 5, and 7.
Four groups of rats were included. The first control group was treated with a solution of HPβCD 270 mg/kg (n=10). The second group was treated with a suspension of rifaximin 30 mg/kg (n=10). The third group was treated with a suspension of rifaximin 60 mg/kg (n=10). The fourth group was treated with 15 mg/kg of 2-octynoHA dissolved in HPβCD solution (1:1 molar ratio of 2-octynoHA to HPβCD) (n=10). All groups received the treatment via gavage twice a day from day 3 to day 8. Blood samples were collected sublingually on days 0, 6 and 8. Blood ammonia level was measured in collected samples using PocketChem™ (Arkray, Japan).

[2] = Stability of 2-octynoHA in solution (UHPLC-UV); format: physicochemical
Protocol: Preliminary stability of 2-octynoHA was assessed in HBSS pH 7.4 supplemented with HEPES 15 mM and compared to stability of the molecule in ultra-pure water.
Both solutions of 2-octynoHA were prepared to a final concentration of 0.5 mg/mL. 2-octynoHA was incubated for ca. 20 min at 37° C. until fully dissolved in the corresponding media. Once solutions were prepared, they were subjected to UHPLC-UV analysis within ca. 1 h while being kept at room temperature. For chromatographic separation and spectrophotometric analysis, 2 μL of each solution were injected. The chromatographic separation was performed on a 10 cm Polar C18 UHPLC column with a mobile phase composed of water, acetonitrile and formic acid 0.1%.
Detection was performed on a diode array detector by monitoring UV absorbance at 200 nm. 2-octynoHA was detected at 200 nm with RT=5.36 min in both solutions.
In order to identify the product of degradation, a solution of 2-octynoHA 10 mM was prepared in phosphate buffer (KH2PO4 200 mM pH 6.8) and left to incubate overnight at 37° C. […] The product of degradation was then extracted with chloroform, the organic phase was collected, dried over Na2SO4 and filtered. The solvent was evaporated, the obtained substance was dissolved in deuterated dimethyl sulfoxide (DMSO-d6) for ^1H NMR analysis.

[3] = tested on: Caco-2 cells; test: Cytotoxicity in Caco-2 cells (CCK-8); conditions: 24 h; for Caco-2 cell viability (percentage of the medium control): 10 mM
Protocol: (§1) The compounds used were 2-octynoHA, OHA (Tokyo Chemical Industry Co., Ltd.; Japan) and AHA (Sigma-Aldrich, St. Louis, MO) The human colorectal adenocarcinoma cell line Caco-2 was obtained from American Type Culture Collection. The cells were cultured in complete medium containing DMEM (Dulbecco's modified Eagle's medium) high glucose, GlutaMax™, pyruvate (Thermo Fisher Scientific, Waltham, MA) supplemented with 10% fetal bovine serum (Thermo Fisher Scientific, Waltham, MA), 1% penicillin-streptomycin (Thermo Fisher Scientific, Waltham, MA) and 15 mM HEPES (Thermo Fisher Scientific, Waltham, MA). The cells were incubated at 37° C. in a humidified atmosphere with 5% CO2. Caco-2 cells were used in the experiments from passage 50 to 60 and were tested negative for mycoplasma.
(§2) The cytotoxicity of HAs was assessed using Cell Counting Kit-8 (CCK-8, Sigma-Aldrich, St. Louis, MO), a colorimetric assay based on tetrazolium salt WST-8 which is reduced by dehydrogenases in cells to an orange-colored formazan. The absorbance of formazan at 450 nm is directly proportional to the number of living cells.
(§3) In order to test cytotoxicity of HAs, Caco-2 cells were seeded in a 96-well plate at a density of 5×10^3 cell/well and grown for 1 day. Then, cells were treated with an increasing range of inhibitors' concentrations and incubated for another 24 h at 37° C., 5% CO2. […] After incubation, cells were washed with phosphate buffered saline (Thermo Fisher Scientific, Waltham, MA), treated with DMEM without phenol red (Thermo Fisher Scientific, Waltham, MA) containing CCK-8 reagent and incubated for another 2 h at 37° C. in a humidified atmosphere with 5% CO2. The absorbance of medium at 450 nm was measured using Tecan Infinite M200 PRO plate reader. Caco-2 cell viability was calculated as a percentage of the medium control.

[4] = Pharmacokinetics in male beagle dogs (plasma); format: in vivo, dog; conditions: for bioavailability: dog
Text: The main objective of the experiment was to quantify the levels of 2-octynoHA in the plasma of male beagle dogs following I.V. administration of a solution of 2-octynoHA with HPβCD (1:1 molar ratio) (PK 1), oral (P.O.) administration of 2-octynoHA formulated in an uncoated gelatin capsule size 0 (PK 2), and oral administration of 2-octynoHA formulated in a coated (Eudragit S100 15% w/w, triethyl citrate 5% w/w, isopropyl alcohol 40% w/w, ethanol 40% w/w) gelatin capsule size 0 for colonic delivery (PK 3) (Table Ill). For each of the studies, three animals were administered with a single dose of the corresponding treatment. Plasma samples were collected at pre-determined time points (Table Ill).
In PK 1, the plasma samples were extracted by protein precipitation prior to analysis. In brief, 40 μL plasma was precipitated with 2 volumes (80 μL) of an organic solvent solution consisting of acetonitrile:methanol (80:20 v/v) containing 1% formic acid. Samples were vortex-mixed and centrifuged at 13,000 rpm. 100 μL of supernatant were further diluted with 100 μL water containing 0.1% formic acid (final dilution factor of 6×). The sample extracts were transferred into a 96-well plate. Four μL plasma extract were injected for chromatographic separation and high resolution/accurate mass analysis. Separation was performed on a 5 cm C18 UPLC column, detection and quantification were performed on a quadrupole time-of-flight (QTof) mass spectrometer in the positive ion mode.
In both PK 2 and PK 3, prior to extraction, plasma samples (ca. 700 μL) were acidified by adding 15 μL of 50% phosphoric acid in water. Then, plasma samples (40 μL) were extracted by protein precipitation by adding 2 volumes (80 μL) of an organic solvent solution consisting of acetonitrile:methanol (80:20 v/v) containing 0.2% formic acid.
Samples were vortex-mixed and centrifuged at 13,000 rpm for 5 min. 100 μL of supernatant were further diluted with 100 μL water containing 0.1% formic acid (final dilution factor of 6×). The sample extracts were transferred into a 96-well plate. Five μL were injected for chromatographic separation and further mass analysis. The chromatographic separation was performed on a 10 cm C18 UPLC column and the MS detection and quantification was performed on a quadrupole time-of-flight (QTof) mass spectrometer in the positive ion mode.
Concentrations of 2-octynoHA was quantified based on the calibration curve. In the PK 1, 2-octynoHA was detected at the m/z 156.1 with the retention time (RT) of 4.12 min. […] Concentration values below the lower limit of quantitation (LLOQ) (i.e., lowest amount of an analyte in a sample that can be quantitatively determined with suitable precision and accuracy) were considered equal to zero.

[5] = tested on: bile-duct ligated (BDL) rat model of hepatic encephalopathy; test: In vivo efficacy in bile-duct ligated (BDL) rats, blood ammonia; conditions: 30 mg/kg twice a day by gavage in HPβCD solution, dropped from 53±30.31 μmol/L before treatment, n=4
Protocol: Efficacy of 2-octynoHA was evaluated in the bile-duct ligated (BDL) rat model, which is recommended by the International Society for Hepatic Encephalopathy and Nitrogen Metabolism (ISHEN) as an animal model of hepatic encephalopathy (HE) associated with chronic liver cirrhosis. This model is obtained by obstruction of the common bile duct that causes impairment of liver function and thereby development of hyperammonemia and low-grade HE.
In this study, on the DO blood ammonia levels were measured (n=4, 27.25±6.18 μmol/L) using PocketChem™ (Arkray, Japan) after which all rats were subjected to the BDL surgery. Right before surgery all animals were given injection of slow-release buprenorphine (lasting 72 h) between the shoulder blades. Then, animals were anesthetized with isoflurane in O2. Depth of anesthesia was checked by toe-pinching. Further, a midline incision was made (2 cm), and then the common bile duct was isolated of surrounding tissue, tightly ligated twice with silk suture and cut between the 2 ligations. Abdominal incision was closed with Vicryl™ 4-0 for muscle layers; skin was closed with staples and one drop of Vetbond™ tissue glue was applied to secure closing. Animals were then placed on heating pad for recovery. For the first 4 weeks post-surgery, animals were monitored for pain level, extent of jaundice, body weight (BW) and disease scores. […]

[6] = tested on: S. typhimurium strains (TA98, TA100, TA1535, TA1537); test: Ames test (Ames MPF Penta 1), S. typhimurium strains
Text: A commercial microplate format test kit (Ames MPF™ Penta 1, Xenometrix, Switzerland) was used for this experiment. The most commonly used strains in the Ames tests, S. typhimurium with point mutations in the histidine operon and E. coli with mutations in the tryptophan operon were utilized as the model systems. The mutagenicity of the three hydroxamic acids was investigated in four S. typhimurium strains (TA98, TA100, TA1535, TA1537) and in the mixture of two E. coli strains (wp2 [pKM101] and wp2 uvrA) with and without metabolic activation (S9 fraction) according to the manufacturer's protocol.
Bacteria were exposed to 6 concentrations of the test compounds, solvent control (DMSO) and positive control substances (concentrations listed in Tables I-II below) for 90 min in the medium containing enough histidine for S. typhimurium or tryptophan for E. coli to support cell growth. After that, the cultures media were diluted with pH indicator solution lacking histidine or tryptophan and aliquoted into 48 wells of a 384-well plate. Within 48 hours, media containing cells that reverted to amino acid prototrophy turned yellow as bacteria metabolism reduced the pH of the media. The number of yellow wells containing revertant colonies was counted for each dose of the test compounds and compared to the solvent control.

[7] = tested on: bacterial urease; test: Rat caecum content assay (urease inhibitory activity, ammonia production from urea); format: cell-based, bacteria of rat caecum content
Protocol: To evaluate the inhibitory activity of HAs, the inventors first established an in vitro assay using rat caecum content.
The use of caecum content samples for the initial screening of urease inhibitors allowed to rapidly identify stable and membrane permeable inhibitors that cover a broad spectrum of bacterial ureases present in the gastrointestinal tract.
According to the herein established protocol, rat caecum content provided by the ETH Phenomics center was diluted in 200 mM potassium phosphate monobasic buffer pH 6.8 and centrifuged at 100×g to remove large particles. The supernatant with dispersed bacteria was collected, mixed with urea and then incubated with an increasing range of inhibitor concentrations for 30 min at 37° C. with constant shaking. In this setup initial concentrations of bacteria and urea were adjusted to the values that lead to the production of ammonia at a final concentration of approximately 1000 μM. Bacterial urease converts urea to ammonia, which was quantified by an enzymatic assay (Ammonia assay, Randox Laboratories, UK).
The established assay was then used to evaluate the potency of commercially available HAs as well as synthesized HAs of the present disclosure. As most of the tested HAs have low aqueous solubility, cyclodextrins were used to prepare water-soluble formulations of the compounds. In this study, a stock solution of acetohydroxamic acid (AHA) was prepared in DMSO, and stock solutions of octanohydroxamic acid (OHA) and 2-octynohydroxamic acid (2-octynoHA) were prepared by dissolving them in aqueous solutions of 2-hydroxypropyl-p-cyclodextrin (HPβCD) in 1:2 and 1:4 molar ratios, respectively. The obtained mixtures were sonicated and heated at 37° C. until fully dissolved.
Besides 2-octynoHA, the urease inhibitory activity of other unsaturated alkylated HAs consisting of 8 carbons was assessed. These included 2-octenohydroxamic acid (2-octenoHA), 3-octenohydroxamic acid (3-octenoHA), 3-octynohydroxamic acid (3-octynoHA) and 7-octynohydroxamic acid (7-octynoHA). Prior to assessing potency in the rat caecum content assay, stock solutions of 2-octenoHA and 3-octenoHA were prepared using HPβCD solution (1:4 molar ratio of HA to HPβCD), stock solutions of 3-octynoHA and 7-octynoHA were prepared using mixture of 10% DMSO and HPβCD solution. The 7-octynoHA presented a lower potency than unsaturated alkylated HAs having a double/triple bond at positions 2 or 3.

[8] = tested on: mixture of E. coli strains (wp2 [pKM101] and wp2 uvrA); test: Ames test (Ames MPF Penta 1), E. coli strain mixture; format: cell-based; conditions: with or without metabolic activation (S9)
Text: A commercial microplate format test kit (Ames MPF™ Penta 1, Xenometrix, Switzerland) was used for this experiment. […] The mutagenicity of the three hydroxamic acids was investigated in four S. typhimurium strains (TA98, TA100, TA1535, TA1537) and in the mixture of two E. coli strains (wp2 [pKM101] and wp2 uvrA) with and without metabolic activation (S9 fraction) according to the manufacturer's protocol.

[9] = tested on: Caco-2 cells; conditions: human, 24 h
Protocol: as §1, §2, §3

[10] = TA98, TA100, TA1535, TA1537, with or without metabolic activation (S9)
[11] = rat caecum content with urea, 30 min at 37° C., pH 6.8; read-out: IC50, bacterial urease inhibitory activity

## CCCCCC#CC(=O)NO [2-octynoHA, N-hydroxyoct-2-ynamide]
[1]; 15 mg/kg in HPβCD solution
  blood ammonia level on day 6: 20 ± 9.6 µM
[2]; 0.5 mg/mL in HBSS pH 7.4 with HEPES 15 mM, ca. 20 min at 37° C., analysed within ca. 1 h at room temperature
  degradation in solution (UHPLC-UV): degraded
[2]; 0.5 mg/mL in ultra-pure water, ca. 20 min at 37° C., analysed within ca. 1 h at room temperature
  degradation in solution (UHPLC-UV): No degradation
[2]; 10 mM in KH2PO4 200 mM pH 6.8, overnight at 37° C.
  degradation in solution (UHPLC-UV): Complete degradation
[3]
  Caco-2 cell viability (percentage of the medium control): ca. 6%
[3]; Caco-2 cells
  concentration up to which no cytotoxicity was detected: up to 1 mM
[4]; PK 3: P.O., 300 mg per dog, coated (Eudragit S100) gelatin capsule for colonic delivery
  plasma concentration: below LLOQ
[4]; male, beagle, plasma, po, 300 mg, uncoated gelatin capsule, dose-adjusted AUC0-t of PK 1 and PK 2, read-out: bioavailability after oral administration
  bioavailability: ~4.5%
[4]; male, beagle, plasma, po, delivery via a colonic capsule, read-out: oral bioavailability
  bioavailability: ~0%
[4]; male, beagle, plasma, po, PK 2: P.O., 300 mg per dog, uncoated gelatin capsule
  Tmax: 30 min
[4]; male, beagle, plasma, po, PK 2: P.O., 300 mg per dog, uncoated gelatin capsule, read-out: AUC0-t (t=12 h)
  AUC(0-t): ~0.213 µg·h/mL
[4]; plasma, iv, PK 1: I.V., 100 mg per dog, solution with HPβCD (1:1), male beagle dogs, read-out: AUC0-t (t=4 h)
  AUC(0-t): ~1.78 µg·h/mL
[5]
  mean blood ammonia level three days after initiating treatment: 11 ± 5.68 µmol/L
[6]; [10]
  mutagenicity (reverse mutations): not mutagenic up to 1 mM
[7]; read-out: IC50, bacterial urease inhibitory activity; rat caecum content with urea, 30 min at 37° C., pH 6.8
  pIC50: ~4.42
[8]
  mutagenicity (reverse mutations): not mutagenic up to 1 mM

## C#CCCCCCC(=O)NO [7-octynoHA, 7-octynohydroxamic acid]
[7]; rat caecum content assay, FIG. 6
  potency compared with unsaturated alkylated HAs having a double/triple bond at positions 2 or 3: lower potency

## CC(=O)NO [AHA, N-hydroxyacetamide]
[6]; TA98, TA100 and TA1537 strains at 5 and 10 mM
  mutagenicity (reverse mutations): mutagenic potential was detected
[7]; [11]
  pIC50: 2.14
[9]
  concentration up to which no cytotoxicity was detected: up to 10 mM

## CCCCCCCC(=O)NO [OHA, N-hydroxyoctanamide, reference compound]
[3]
  Caco-2 cell viability (percentage of the medium control): no live cells were observed
[6]; [10]
  mutagenicity (reverse mutations): not mutagenic
[7]; [11]
  pIC50: 3.64
[8]
  mutagenicity (reverse mutations): not mutagenic

## OO [hydrogen peroxide, reference compound]
[3]
  Caco-2 cell viability (percentage of the medium control): 1.79±6%

## CO[C@H]1/C=C/O[C@@]2(C)Oc3c(C)c(O)c4c(O)c(c5c(nc6cc(C)ccn65)c4c3C2=O)NC(=O)/C(C)=C\C=C\[C@H](C)[C@H](O)[C@@H](C)[C@@H](O)[C@@H](C)[C@H](OC(C)=O)[C@@H]1C [rifaximin, reference compound]
[1]; 30 mg/kg suspension
  blood ammonia level on day 6: 44 ± 22.4 µM
